Patent US8759333B2, “Di-azetidinyl diamide as monoacylglycerol lipase inhibitors” (Janssen Pharmaceutica, NV, priority 2010, dated 2014)
Changes are numbered by the printed parent chain.

Legend:
[1] = biological target: T1, mutant MGL (mut-MGLL 11-313 L179S L186S) (Homo sapiens, UniProt Q99685, L169S/L176S); assay: MGL Enzyme Activity Assay, purified mutant MGL, 4MU-B substrate; format: biochemical; details: mutant MGL 5 nM, 4MU-B 10 μM, 37° C.; read-out: MGL mutant inh IC50
T1 construct: purified mutant MGL (mut-MGLL 11-313 L179S L186S)
T1 sequence (Q99685 1-303 L169S/L176S): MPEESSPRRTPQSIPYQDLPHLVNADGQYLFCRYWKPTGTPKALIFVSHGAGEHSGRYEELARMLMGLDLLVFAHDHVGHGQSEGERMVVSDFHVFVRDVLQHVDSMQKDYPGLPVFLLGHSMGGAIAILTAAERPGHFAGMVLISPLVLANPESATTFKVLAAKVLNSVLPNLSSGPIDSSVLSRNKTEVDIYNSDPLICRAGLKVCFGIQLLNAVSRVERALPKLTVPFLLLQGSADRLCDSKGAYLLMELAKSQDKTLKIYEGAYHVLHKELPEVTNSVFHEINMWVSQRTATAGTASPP
In short: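 Purified mutant MGL (5 nM final) with 10 μM 4MU-B in 20 mM PIPES pH 7.0, 150 mM NaCl, 0.001% Tween 20; compounds 17 to 0.0003 μM final. Fluorescence (ex 335/em 440 nm) followed 5 min at 37 °C; IC50 from fit of fractional activity versus inhibitor concentration.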

[2] = biological target: T2, MGL (Rattus norvegicus, UniProt Q8R431); assay: 2-AG Accumulation Assay in rat brain homogenate; format: biochemical; details: percent of vehicle; for activity at 1 µM: compound @1 µM, read-out: Rat Brain 2AG % VehCntrl (%) @1 µM; for activity at 10 µM: compound @10 µM, read-out: Rat Brain 2AG % VehCntrl (%) @10 µM
T2 construct: one g rat brain was homogenized using a Polytron homogenizer; from tissue; host or cells: rat brain homogenate
T2 sequence (Q8R431 1-303): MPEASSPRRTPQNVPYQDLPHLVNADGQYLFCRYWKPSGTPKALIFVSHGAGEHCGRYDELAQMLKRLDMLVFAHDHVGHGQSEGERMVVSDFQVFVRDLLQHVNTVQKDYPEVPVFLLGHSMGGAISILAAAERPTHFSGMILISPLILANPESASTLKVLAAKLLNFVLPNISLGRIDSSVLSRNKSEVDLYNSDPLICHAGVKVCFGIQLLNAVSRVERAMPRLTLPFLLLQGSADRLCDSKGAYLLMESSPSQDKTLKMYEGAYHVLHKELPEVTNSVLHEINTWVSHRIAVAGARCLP

[3] = biological target: T3, wild type MGL (wt-MGLL 6H-11-313) (Homo sapiens, UniProt Q99685); assay: MGL Enzyme Activity Assay, purified wild type MGL, 4MU-B substrate; format: biochemical; details: wild type MGL 5 nM, 4MU-B 10 μM, 37° C.; read-out: MGL wild type inh IC50
T3 construct: purified wild type MGL (wt-MGLL 6H-11-313); 6H (hexahistidine) (N)
T3 sequence (Q99685 1-303): T1 sequence (Q99685 1-303 L169S/L176S) with S169L, S176L
Description: All rate-based assays were performed in black 384-well polypropylene PCR microplates (Abgene) in a total volume of 30 μL. […] Final compound concentrations ranged from 17 to 0.0003 μM.
The IC50 values for the following compounds were determined using Microsoft Office Excel from a fit of the equation to the concentration-response plot of the fractional activity as a function of inhibitor concentration.

[4] = tested on: CFA-Induced Paw Radiant Heat Hypersensitivity; assay: CFA-Induced Paw Radiant Heat Hypersensitivity; format: in vivo; details: rat, HPβCD; for inhibition in vivo at 10 mg/kg / inhibition in vivo at 30 mg/kg: po, 5 h, group mean values, read-out: Method 1: peak % reversal; for Method 2: peak % reversal: individual animal values
Description: Each rat was placed in a test chamber on a warm glass surface and allowed to acclimate for approximately 10 min. A radiant thermal stimulus (beam of light) was focused through the glass onto the plantar surface of each hind paw in turn. The thermal stimulus was automatically shut off by a photoelectric relay when the paw was moved or when the cut-off time was reached (20 sec for radiant heat at ˜5 amps). An initial (baseline) response latency to the thermal stimulus was recorded for each animal prior to the injection of complete Freund's adjuvant (CFA). Twenty-four hours following intraplantar CFA injection, the response latency of the animal to the thermal stimulus was re-evaluated and compared to the animal's baseline response time. […] Immediately following the post-CFA latency assessment, the indicated test compound or vehicle was administered orally. Post-compound treatment withdrawal latencies were assessed at fixed time intervals, typically 30, 60, 120, 180, and 300 min.
The percent reversal (% R) of hypersensitivity was calculated in one of two different ways:
1) using group mean values or 2) using individual animal values. More specifically:
Method 1. For all compounds, the % R of hypersensitivity was calculated using the mean value for groups of animals at each time point according to the following formula: % reversal=[(group treatment response−group CFA response)/(group baseline response−group CFA response)]×100 Results were given for the maximum % reversal observed for each compound at any time point tested.
Method 2. For some compounds, the % R of hypersensitivity was calculated separately for each animal according to the following formula: % reversal=[(individual treatment response−individual CFA response)/(individual baseline response−individual CFA response)]×100.
Results are given as a mean of the maximum % reversal values calculated for each individual animal.

[5] = biological target: T4, mutant MGL (Homo sapiens, UniProt Q99685, L169S/L176S); assay: MGL ThermoFluor Assay - Mutant; format: binding; details: 0.07 mg/ml mutant MGL, 100 μM ANS, pH 7.0
T4 construct: purified mutant MGL (mut-MGLL 11-313 L179S L186S)
T4 sequence (Q99685 1-303 L169S/L176S): T1 sequence (Q99685 1-303 L169S/L176S)
In short: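 Thermal-shift binding with 0.07 mg/ml L169S/L176S mutant MGL, 100 μM 1,8-ANS, 200 mM NaCl, 0.001% Tween-20, 50 mM PIPES pH 7.0, heated 40–90 °C at 1 °C/min.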

[6] = tested on: murine model of acute inflammation; details: murine model of acute inflammation (Comelli et al.); cited from earlier work
[7] = 10 mg/kg p.o., last time point 300 min
[8] = 30 mg/kg p.o., last time point 300 min (180 min for Cpd 17, 77)

For `O=C(NC1CN(C2CN(C(=O)c3ccc4c(ccn4-c4ccc(C(F)(F)F)cc4)c3)C2)C1)c1nccs1` [Cpd 1, N-[1′-({1-[4-(Trifluoromethyl)phenyl]-1H-indol-5-yl}carbonyl)-1,3′-biazetidin-3-yl]-1,3-thiazole-2-carboxamide], the IC50 [1] was 5 nM, the activity at 1 µM [2] was 370% and the activity at 10 µM [2] was 639%. It also gave an IC50 [3] of less than 5 nM, an inhibition in vivo at 10 mg/kg [4, 7] of -18.6% and an inhibition in vivo at 30 mg/kg [4, 8] of 10.3%. The “Method 2: peak % reversal” value [4, 7] was −19.0%, the “Method 2: peak % reversal” value [4, 8] was 7.4% and the Kd [5] was 6 nM.
Molecule `O=C(NC1CN(C2CN(C(=O)c3ccc(-c4cccc(C(F)(F)F)c4)cc3)C2)C1)c1cscn1` [Cpd 2, N-(1′-{[3′-(Trifluoromethyl)biphenyl-4-yl]carbonyl}-1,3′-biazetidin-3-yl)-1,3-thiazole-4-carboxamide] has an IC50 [1] of 6 nM, an activity at 1 µM [2] of 620% and an IC50 [3] of 8 nM. It also gave an inhibition in vivo at 30 mg/kg [4, 8] of 47.9% and a Kd [5] of 22 nM.
For `O=C(NC1CN(C2CN(C(=O)c3ccc(-c4cccc(C(F)(F)F)c4)cc3)C2)C1)c1nccs1` [Cpd 5, N-(1′-{[3′-(Trifluoromethyl)biphenyl-4-yl]carbonyl}-1,3′-biazetidin-3-yl)-1,3-thiazole-2-carboxamide], the IC50 [1] was 7 nM, the activity at 1 µM [2] was 347% and the activity at 10 µM [2] was 921%. The IC50 [3] was 15 nM, the inhibition in vivo at 30 mg/kg [4, 8] was 57.4% and the “Method 2: peak % reversal” value [4, 8] was 55.8%. It also gave a Kd [5] of 11.2 nM.
For `O=C(NC1CN(C2CN(C(=O)c3ccc4nc(-c5ccccc5)oc4c3)C2)C1)c1nccs1` [Cpd 17, N-{1′-[(2-Phenyl-1,3-benzoxazol-6-yl)carbonyl]-1,3′-biazetidin-3-yl}-1,3-thiazole-2-carboxamide], the IC50 [1] was 48 nM, the activity at 1 µM [2] was 355% and the activity at 10 µM [2] was 486%. The IC50 [3] was 37 nM, the inhibition in vivo at 30 mg/kg [4, 8] was 27% and the “Method 2: peak % reversal” value [4, 8] was 31.5%. It also gave a Kd [5] of 333 nM.
Molecule `Cc1c(C(=O)N2CC(N3CC(NC(=O)c4nccs4)C3)C2)sc2cc(C(F)(F)F)ccc12` [Cpd 56, N-(1′-{[3-Methyl-6-(trifluoromethyl)-1-benzothiophen-2-yl]carbonyl}-1,3′-biazetidin-3-yl)-1,3-thiazole-2-carboxamide] has an activity at 1 µM [2] of 413%, an IC50 [3] of 6 nM and an inhibition in vivo at 30 mg/kg [4, 8] of -1.3%. It also gave a Kd [5] of 2.15 nM.
Molecule `Cc1c(C(=O)N2CC(N3CC(NC(=O)c4cscn4)C3)C2)sc2cc(C(F)(F)F)ccc12` [Cpd 67, N-(1′-{[3-Methyl-6-(trifluoromethyl)-1-benzothiophen-2-yl]carbonyl}-1,3′-biazetidin-3-yl)-1,3-thiazole-4-carboxamide] has an activity at 1 µM [2] of 434%, an IC50 [3] of less than 5 nM and an inhibition in vivo at 30 mg/kg [4, 8] of 35.7%. For the same molecule, the Kd [5] was 10.7 nM.
`O=C(c1ccc2c(ccn2-c2ccc(C(F)(F)F)cc2)c1)N1CC(N2CC(N3Cc4ccccc4C3=O)C2)C1` [Cpd 70, 2-[1′-({1-[4-(Trifluoromethyl)phenyl]-1H-indol-5-yl}carbonyl)-1,3′-biazetidin-3-yl]-2,3-dihydro-1H-isoindol-1-one] showed an IC50 [1] of 8 nM, an activity at 1 µM [2] of 483% and an activity at 10 µM [2] of 736%. It also gave an IC50 [3] of less than 5 nM, an inhibition in vivo at 10 mg/kg [4, 7] of 28.2% and an inhibition in vivo at 30 mg/kg [4, 8] of 4.7%. The “Method 2: peak % reversal” value [4, 7] was 22.5%, the “Method 2: peak % reversal” value [4, 8] was 5% and the Kd [5] was 3.5 nM.
Work on `O=C(c1ccc(-c2ccc(C(F)(F)F)s2)cc1)N1CC(N2CC(N3Cc4ccccc4C3=O)C2)C1` [Cpd 76, 2-[1′-({4-[5-(Trifluoromethyl)thiophen-2-yl]phenyl}carbonyl)-1,3′-biazetidin-3-yl]-2,3-dihydro-1H-isoindol-1-one] yielded an IC50 [1] of 15 nM, an activity at 1 µM [2] of 204% and an activity at 10 µM [2] of 725%. The IC50 [3] was less than 5 nM, the inhibition in vivo at 10 mg/kg [4, 7] was 15.7% and the inhibition in vivo at 30 mg/kg [4, 8] was 17.1%. The “Method 2: peak % reversal” value [4, 7] was 26.7%, the “Method 2: peak % reversal” value [4, 8] was 17.7% and the Kd [5] was 10 nM.
For `O=C(c1ccc2oc(-c3ccccc3)nc2c1)N1CC(N2CC(N3Cc4ccccc4C3=O)C2)C1` [Cpd 77, 2-{1′-[(2-Phenyl-1,3-benzoxazol-5-yl)carbonyl]-1,3′-biazetidin-3-yl}-2,3-dihydro-1H-isoindol-1-one], the IC50 [1] was 16 nM, the activity at 10 µM [2] was 478% and the IC50 [3] was 31 nM. For the same molecule, the inhibition in vivo at 30 mg/kg [4, 8] was 9.9%, the “Method 2: peak % reversal” value [4, 8] was 6.9% and the Kd [5] was 100 nM.
In the case of `O=C(c1cc2cc(-c3ccccc3)ccc2s1)N1CC(N2CC(N3Cc4ccccc4C3=O)C2)C1` [Cpd 79, 2-{1′-[(5-Phenyl-1-benzothiophen-2-yl)carbonyl]-1,3′-biazetidin-3-yl}-2,3-dihydro-1H-isoindol-1-one], the IC50 [1] is reported as 18 nM, the activity at 1 µM [2] is reported as 253% and the activity at 10 µM [2] is reported as 676%. For the same molecule, the IC50 [3] was 10 nM, the inhibition in vivo at 30 mg/kg [4, 8] was 33.7% and the Kd [5] was 33.3 nM.
Molecule `O=C(c1sc2cc(C(F)(F)F)ccc2c1Cl)N1CC(N2CC(N3Cc4ccccc4C3=O)C2)C1` [Cpd 99, 2-(1′-{[3-Chloro-6-(trifluoromethyl)-1-benzothiophen-2-yl]carbonyl}-1,3′-biazetidin-3-yl)-2,3-dihydro-1H-isoindol-1-one] has an IC50 [1] of less than 5 nM, an activity at 1 µM [2] of 449% and an IC50 [3] of less than 5 nM. For the same molecule, the inhibition in vivo at 30 mg/kg [4, 8] was 27.6% and the Kd [5] was 2.7 nM.
Work on `Cc1c(C(=O)N2CC(N3CC(N4Cc5ccccc5C4=O)C3)C2)sc2cc(C(F)(F)F)ccc12` [Cpd 101, 2-(1′-{[3-Methyl-6-(trifluoromethyl)-1-benzothiophen-2-yl]carbonyl}-1,3′-biazetidin-3-yl)-2,3-dihydro-1H-isoindol-1-one] yielded an activity at 1 µM [2] of 534%, an IC50 [3] of 6 nM and an inhibition in vivo at 30 mg/kg [4, 8] of 6.1%. It also gave a Kd [5] of 4 nM.
In the case of `O=C(Nc1cccc(-c2ccccc2)c1)OC1CCCCC1` [URB602], the antinociceptive effect [6] is listed as “showed an antinociceptive effect”.
